Test results reported in patent US20240254089A1, “MODULATORS OF MAS-RELATED G-PROTEIN RECEPTOR X4 AND RELATED PRODUCTS AND METHODS” (ESCIENT PHARMACEUTICALS, INC., priority 2020, published 2024).

Target: T1, human MRGPR X4 (Homo sapiens, UniProt Q96LA9)
T1 construct: expressed in transfected cells
Assay: MRGPR X4 antagonist activity, IP-One Gq HTRF assay in stably transfected HEK cells
Format: cell-based
Conditions: not given
Method: HEK cells stably transfected to express human MIRGPR X4 were maintained in an incubator at 37° C. with 5% CO2 and grown in DMEM media with 10% fetal bovine serum (FBS) and […] each of sodium pyruvate, Glutamax, penicillin/streptomycin, and Geneticin. HEK cells stably transfected to express mouse MRGPR A1 were maintained in the same incubator and grown in DMEM media with 10% FBS, 1% each of sodium pyruvate, Glutamax, penicillin/streptomycin, Geneticin, and 2.2 mg/mL Hygromycin.
Cells were plated in a 384-well assay plate at 20,000 cells per well in 12 μL of Opti-MEM and kept in an incubator overnight. On the day of the assay, compounds solubilized at 10 mM in DMSO were added as a 10-point curve (10 uM final top concentration with 1:3 serial dilutions) using a Tecan D300E digital dispenser. Agonists were diluted in assay buffer (final concentrations of 5.7 mM Tris-HCl, 43 mM NaCl, 50 mM LiCl, pH=8) and 2 μL of the appropriate agonist are added to each well. Final concentrations of agonists were 10 μM bilirubin, 20 μM deoxycholic acid, or 100 μM conjugated bilirubin (obtained from Lee Biosolutions, catalog #910-12). Final concentrations of DMSO were kept consistent across the plate. Plates were incubated in the dark for 1 h at 37° C. and then for 30 minutes at room temperature. IP-1 standards and HTRF detection reagents were added according to the IP-One—Gq Kit purchased from Cisbio (part number 62IPAPEJ) and incubated in the dark for 1 h at room temperature. The plate was read on a Molecular Devices SpectraMax iD5 plate reader. The HTRF ratio was calculated from the raw data and graphed using GraphPad Prism to calculate an IC50 value for each compound.

T1 sequence (Q96LA9 whole entry): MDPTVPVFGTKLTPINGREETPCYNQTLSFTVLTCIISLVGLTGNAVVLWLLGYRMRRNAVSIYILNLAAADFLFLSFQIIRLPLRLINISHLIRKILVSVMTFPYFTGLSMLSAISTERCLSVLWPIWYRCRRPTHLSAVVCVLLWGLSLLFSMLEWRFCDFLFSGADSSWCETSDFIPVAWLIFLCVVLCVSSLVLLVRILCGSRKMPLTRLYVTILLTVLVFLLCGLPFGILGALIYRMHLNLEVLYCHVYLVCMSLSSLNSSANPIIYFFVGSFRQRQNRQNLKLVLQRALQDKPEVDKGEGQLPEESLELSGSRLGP

For `O=C(NCCc1cccnc1)c1nn(Cc2ccc(OC(F)(F)F)cc2)c2ccccc12` [Compound 136, N-(2-(pyridin-3-yl)ethyl)-1-(4-(trifluoromethoxy)benzyl)-1H-indazole-3-carboxamide], which IC50 is on record?
Its IC50 is 100 to 500 nM.

For `CC(C)c1cn(CCNC(=O)c2nn(Cc3ccc(Cl)cc3)c3ccccc23)nn1` [Compound 137, 1-(4-chlorobenzyl)-N-(2-(4-isopropyl-1H-1,2,3-triazol-1-yl)ethyl)-1H-indazole-3-carboxamide], which IC50 is on record?
Its IC50 is less than 100 nM.

Which IC50 does the source give for `O=C(NCCn1cc(C2CC2)nn1)c1nn(Cc2ccc(Cl)cc2)c2ccccc12` [Compound 138] here?
Its IC50 is less than 100 nM.

With `CC1(c2cn(CCNC(=O)c3nn(Cc4ccc(Cl)cc4)c4ccccc34)nn2)COC1` [Compound 139] as the molecule, how does the IC50 read?
Its IC50 is 100 to 500 nM.

With `CC(C)(O)c1cn(CCNC(=O)c2nn(Cc3ccc(Cl)cc3)c3ccccc23)nn1` [Compound 140] as the molecule, how does the IC50 read?
The IC50 was 501 to 1000 nM.

With `O=C(NCCn1cc(-c2ccccc2)nn1)c1nn(Cc2ccc(Cl)cc2)c2ccccc12` [Compound 141] as the molecule, how does the IC50 read?
The IC50 was 501 to 1000 nM.

Which IC50 does the source give for `CC(C)c1cnnn1CCNC(=O)c1nn(Cc2ccc(Cl)cc2)c2ccccc12` [Compound 143, 1-(4-chlorobenzyl)-N-(2-(5-isopropyl-1H-1,2,3-triazol-1-yl)ethyl)-1H-indazole-3-carboxamide] here?
The IC50 was 100 to 500 nM.

Which IC50 does the source give for `O=C(NCCn1cc(-c2cccnc2)nn1)c1nn(Cc2ccc(Cl)cc2)c2ccccc12` [Compound 144, 1-(4-chlorobenzyl)-N-(2-(4-(pyridin-3-yl)-1H-1,2,3-triazol-1-yl)ethyl)-1H-indazole-3-carboxamide] here?
Its IC50 is 100 to 500 nM.

How did the IC50 turn out when `O=C(NCCn1cc(-c2cncnc2)nn1)c1nn(Cc2ccc(Cl)cc2)c2ccccc12` [Compound 145] was run?
The IC50 was 501 to 1000 nM.

How did the IC50 turn out when `O=C(NCC(O)c1cccnc1)c1cn(Cc2ccc(Cl)cc2)c2ccccc12` (stereo not shown) [Compound 150] was run?
The IC50 was 100 to 500 nM.

How did the IC50 turn out when `Cc1ccc(CCNC(=O)c2cn(Cc3ccc(Cl)cc3)c3ccccc23)cn1` [Compound 151] was run?
Its IC50 is less than 100 nM.

Which IC50 does the source give for `Cc1ncccc1CCNC(=O)c1cn(Cc2ccc(Cl)cc2)c2ccccc12` [Compound 152, 1-(4-chlorobenzyl)-N-(2-(2-methylpyridin-3-yl)ethyl)-1H-indole-3-carboxamide] here?
Its IC50 is less than 100 nM.

`Cc1cccc(CCNC(=O)c2cn(Cc3ccc(Cl)cc3)c3ccccc23)n1` [Compound 153] was tested. Which IC50 did it give?
Its IC50 is less than 100 nM.

`O=C(NCCc1cncc(F)c1)c1cn(Cc2ccc(Cl)cc2)c2ccccc12` [Compound 154] was tested. Which IC50 did it give?
The IC50 was less than 100 nM.

For `COc1ncccc1CCNC(=O)c1cn(Cc2ccc(Cl)cc2)c2ccccc12` [Compound 155], which IC50 is on record?
The IC50 was 100 to 500 nM.

Which IC50 does the source give for `Cc1ccc(CCNC(=O)c2cn(Cc3ccc(Cl)cc3)c3ccccc23)c(C)n1` [Compound 156] here?
The IC50 was 100 to 500 nM.

With `Cc1ccc(Cn2cc(C(=O)NCCc3ccccn3)c3ccccc32)cc1` [Compound 158] as the molecule, how does the IC50 read?
Its IC50 is 100 to 500 nM.

With `Cc1ccc(Cn2cc(C(=O)NCCc3nc(C)cs3)c3ccccc32)cc1` [Compound 159] as the molecule, how does the IC50 read?
The IC50 was 100 to 500 nM.

Which IC50 does the source give for `Cc1ccc(Cn2cc(C(=O)NCCc3cccnc3)c3ccccc32)cc1` [Compound 160] here?
The IC50 was 100 to 500 nM.

How did the IC50 turn out when `Cc1ccncc1CCNC(=O)c1cn(Cc2ccc(Cl)cc2)c2ccccc12` [Compound 161] was run?
Its IC50 is 100 to 500 nM.

Which IC50 does the source give for `O=C(NCCc1cccc(F)c1)c1cn(Cc2ccc(Cl)cc2)c2ccccc12` [Compound 162] here?
Its IC50 is 100 to 500 nM.

For `O=C(NCCc1ccncc1)c1cn(Cc2ccc(Cl)cc2)c2ccccc12` [Compound 163], which IC50 is on record?
Its IC50 is 100 to 500 nM.

Which IC50 does the source give for `COc1cccc(CCNC(=O)c2cn(Cc3ccc(Cl)cc3)c3ccccc23)c1` [Compound 164] here?
The IC50 was 100 to 500 nM.

With `Cc1ccc(Cn2cc(C(=O)NCCc3nc4c(s3)CCCC4)c3ccccc32)cc1` [Compound 165] as the molecule, how does the IC50 read?
The IC50 was 100 to 500 nM.

With `O=C(NCCc1cccnc1)c1cn(Cc2ccc(OC(F)F)cc2)c2ccccc12` [Compound 166] as the molecule, how does the IC50 read?
Its IC50 is 100 to 500 nM.

`O=C(NCCc1ccccn1)c1cn(Cc2ccc(OC(F)F)cc2)c2ccccc12` [Compound 167] was tested. Which IC50 did it give?
The IC50 was 100 to 500 nM.

`COc1ccc(CCNC(=O)c2cn(Cc3ccc(Cl)cc3)c3ccccc23)cn1` [Compound 168] was tested. Which IC50 did it give?
The IC50 was 100 to 500 nM.

How did the IC50 turn out when `Cc1ccc(Cn2cc(C(=O)NCCc3c[nH]c4ccccc34)c3ccccc32)cc1` [Compound 169] was run?
The IC50 was 100 to 500 nM.

With `O=C(NCCc1ccccc1F)c1cn(Cc2ccc(Cl)cc2)c2ccccc12` [Compound 170] as the molecule, how does the IC50 read?
The IC50 was 100 to 500 nM.

With `O=C(NCCc1cnccn1)c1cn(Cc2ccc(Cl)cc2)c2ccccc12` [Compound 171] as the molecule, how does the IC50 read?
The IC50 was 100 to 500 nM.

With `Cc1ccc(Cn2cc(C(=O)NCCc3ccncc3)c3ccccc32)cc1` [Compound 172] as the molecule, how does the IC50 read?
Its IC50 is 100 to 500 nM.

Which IC50 does the source give for `O=C(NCCc1cccnc1)c1cn(Cc2ccc(OC(F)(F)F)cc2)c2ccccc12` [Compound 173] here?
Its IC50 is 100 to 500 nM.

With `Cc1ccc(Cn2cc(C(=O)NCCc3nc4c(s3)CCC4)c3ccccc32)cc1` [Compound 174] as the molecule, how does the IC50 read?
Its IC50 is 100 to 500 nM.

How did the IC50 turn out when `Cc1ccc(CCNC(=O)c2cn(Cc3ccc(Cl)cc3)c3ccccc23)cc1` [Compound 175] was run?
Its IC50 is 100 to 500 nM.

For `COc1ccc(Cn2cc(C(=O)NCCc3cccnc3)c3ccccc32)cc1` [Compound 176], which IC50 is on record?
Its IC50 is 100 to 500 nM.

With `COc1ccccc1CCNC(=O)c1cn(Cc2ccc(Cl)cc2)c2ccccc12` [Compound 177] as the molecule, how does the IC50 read?
The IC50 was 100 to 500 nM.

`Cc1ccccc1CCNC(=O)c1cn(Cc2ccc(Cl)cc2)c2ccccc12` [Compound 178] was tested. Which IC50 did it give?
The IC50 was 100 to 500 nM.

For `O=C(NCCc1ccc(F)cc1)c1cn(Cc2ccc(Cl)cc2)c2ccccc12` [Compound 179], which IC50 is on record?
The IC50 was 100 to 500 nM.

For `Cc1cccc(CCNC(=O)c2cn(Cc3ccc(Cl)cc3)c3ccccc23)c1` [Compound 180], which IC50 is on record?
Its IC50 is 100 to 500 nM.

How did the IC50 turn out when `Cc1ccc(Cn2cc(C(=O)NCCc3cn4c(n3)SCC4)c3ccccc32)cc1` [Compound 181] was run?
Its IC50 is 100 to 500 nM.

With `COc1ccc(CCNC(=O)c2cn(Cc3ccc(Cl)cc3)c3ccccc23)cc1` [Compound 182] as the molecule, how does the IC50 read?
Its IC50 is 100 to 500 nM.

How did the IC50 turn out when `O=C(NCCc1cccnc1)c1cn(Cc2ccccc2Cl)c2ccccc12` [Compound 183] was run?
The IC50 was 501 to 1000 nM.

Which IC50 does the source give for `N#Cc1ccc(Cn2cc(C(=O)NCCc3ccccn3)c3ccccc32)cc1` [Compound 184] here?
Its IC50 is 501 to 1000 nM.

How did the IC50 turn out when `N#Cc1ccc(CCNC(=O)c2cn(Cc3ccc(Cl)cc3)c3ccccc23)cn1` [Compound 185] was run?
Its IC50 is 501 to 1000 nM.

For `O=C(NCCc1cccnc1)c1cn(Cc2cccc(OC(F)(F)F)c2)c2ccccc12` [Compound 186], which IC50 is on record?
Its IC50 is 501 to 1000 nM.

How did the IC50 turn out when `Cc1ccc(Cn2cc(C(=O)NCCc3ccnn3C)c3ccccc32)cc1` [Compound 187] was run?
The IC50 was 501 to 1000 nM.

With `N#Cc1ccc(Cn2cc(C(=O)NCCc3ccc(Cl)c(F)c3)c3ccccc32)cc1` [Compound 188] as the molecule, how does the IC50 read?
Its IC50 is 501 to 1000 nM.

With `O=C(NCCc1cccnc1C(F)(F)F)c1cn(Cc2ccc(Cl)cc2)c2ccccc12` [Compound 189] as the molecule, how does the IC50 read?
The IC50 was 501 to 1000 nM.

With `O=C(NCCc1ccccc1C(F)(F)F)c1cn(Cc2ccc(Cl)cc2)c2ccccc12` [Compound 190] as the molecule, how does the IC50 read?
Its IC50 is 501 to 1000 nM.

For `CC(=O)c1ccc(Cn2cc(C(=O)NCCc3cccnc3)c3ccccc32)cc1` [Compound 191], which IC50 is on record?
The IC50 was 501 to 1000 nM.

`Cc1ccc(Cn2cc(C(=O)NCCc3nc4ccccc4s3)c3ccccc32)cc1` [Compound 192] was tested. Which IC50 did it give?
Its IC50 is 501 to 1000 nM.

Same assay, conditions: versus 20 μM deoxycholic acid agonist; HEK cells expressing human MRGPR X4; read-out: MRGPRX4 Antagonist Activity

For `CNCc1cn(CCNC(=O)c2nn(Cc3ccc(Cl)cc3)c3ccccc23)nn1` [Compound 142], which IC50 is on record?
The IC50 was greater than 2500 nM.

How did the IC50 turn out when `O=C(NCCn1cc(C2CCNCC2)nn1)c1nn(Cc2ccc(Cl)cc2)c2ccccc12` [Compound 146] was run?
Its IC50 is greater than 2500 nM.

`O=C(NCCn1cc(CN2CCS(=O)(=O)CC2)nn1)c1nn(Cc2ccc(Cl)cc2)c2ccccc12` [Compound 147] was tested. Which IC50 did it give?
The IC50 was greater than 2500 nM.

With `O=C(CCc1cccnc1)Nc1nn(Cc2ccc(Cl)cc2)c2ccccc12` [Compound 148, N-(1-(4-chlorobenzyl)-1H-indazol-3-yl)-3-(pyridin-3-yl)-propanamide] as the molecule, how does the IC50 read?
Its IC50 is 1000 to 2500 nM.
